Measured values reported in PMC6689002, “Anthocyanins, delphinidin-3-O-glucoside and cyanidin-3-O-glucoside, inhibit immune checkpoints in human colorectal cancer cells in vitro and in silico” (Scientific Reports, 2019).

Columns and labels:
[1] = target: T1, programmed cell death protein 1 (PD-1) (Homo sapiens, UniProt Q15116); test: intrinsic fluorescence quenching (Stern-Volmer, static quenching); assay type: binding
T1 construct: gene PDCD1; human PD-1 protein

[2] = target: T2, programmed death-ligand 1 (PD-L1) (Homo sapiens, UniProt Q9NZQ7); test: as above; assay type: binding
T2 construct: gene CD274; recombinant human PD-L1 protein
T2 sequence (Q9NZQ7 19-290): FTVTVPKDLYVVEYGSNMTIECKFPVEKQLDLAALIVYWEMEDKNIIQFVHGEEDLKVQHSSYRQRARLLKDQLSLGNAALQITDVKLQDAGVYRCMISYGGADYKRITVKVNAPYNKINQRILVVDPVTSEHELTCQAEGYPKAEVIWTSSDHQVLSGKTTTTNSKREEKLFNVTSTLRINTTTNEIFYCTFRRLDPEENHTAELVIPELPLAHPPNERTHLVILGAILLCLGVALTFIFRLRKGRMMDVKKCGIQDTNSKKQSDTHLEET

T1 sequence (Q15116 25-288): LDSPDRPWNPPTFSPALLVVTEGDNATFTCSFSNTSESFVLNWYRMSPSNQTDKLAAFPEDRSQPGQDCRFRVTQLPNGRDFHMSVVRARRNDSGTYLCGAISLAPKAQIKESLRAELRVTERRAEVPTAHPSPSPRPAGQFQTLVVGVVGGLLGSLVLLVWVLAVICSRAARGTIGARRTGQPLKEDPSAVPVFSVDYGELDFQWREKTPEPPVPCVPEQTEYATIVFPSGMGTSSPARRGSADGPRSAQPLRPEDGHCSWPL

Structure (SMILES)	intrinsic fluorescence quenching (Stern-Volmer, static quenching) [1]	intrinsic fluorescence quenching (Stern-Volmer, static quenching) [2]
OCC1OC(Oc2cc3c(O)cc(O)cc3[o+]c2-c2cc(O)c(O)c(O)c2)C(O)C(O)C1O (stereo not shown) [D3G, delphinidin-3-O-glucoside]	C3G and D3G showed static quenching with both PD-1 and PD-L1	C3G and D3G showed static quenching with both PD-1 and PD-L1
OCC1OC(Oc2cc3c(O)cc(O)cc3[o+]c2-c2ccc(O)c(O)c2)C(O)C(O)C1O (stereo not shown) [C3G, cyanidin-3-O-glucoside]	C3G and D3G showed static quenching with both PD-1 and PD-L1	C3G and D3G showed static quenching with both PD-1 and PD-L1
